Entries after “also recorded” stand apart in the source; their conditions may differ. Structures can show the parent of a compound that is named as a salt.
How the values were obtained:
[1] = tested on: scarring resulting from full thickness cutaneous incisional wounds; experiment: Rat incisional wound scarring model, macroscopic VAS assessment of scars; assay type: in vivo, male Sprague Dawley rats; conditions: day 70 post-wounding
Method: (§1) The GABAA receptor agonist Gaboxadol hydrochloride (Sigma Aldrich, catalogue number T101) was diluted in phosphate buffered saline (PBS) to produce medicaments of the invention having the following concentrations:
(§2) i) 1.76 ng/100 μL (a concentration of 0.1 μM, in which each […] of the medicament provides 10 pmoles of Gaboxadol hydrochloride); ii) 1.76 μg/100 μL (a concentration of 100 μM, in which each 100 μl of the medicament provides 10 nmoles of Gaboxadol hydrochloride); and iii) 8.83 μg/100 μL (a concentration of 500 μM, in which each 100 μl of the medicament provides 50 nmoles of Gaboxadol hydrochloride).
(§3) At day 0, male Sprague Dawley rats (200-250 g) were anaesthetised, shaved and wound sites were marked according to a template in which two wounds, each 1 cm in length, were made at sites 5 cm from the base of the skull and 1 cm from the midline on the back of each rat.
(§4) One hundred microlitres of either one of the medicaments of the invention (comprising either 0.1 μM, 100 μM or 500 μM Gaboxadol hydrochloride in phosphate buffered saline pH 7.2—purchased from GIBCO BRL, Cat. # 20012-019), or placebo (PBS only) was injected intradermally at the wound sites. The intradermal injections caused the formation of a raised bleb, which was then immediately incised to form 1 cm long experimental wounds.
(§5) All treated or diluent control wounds were re-injected again 1 day post-wounding with the appropriate treatment (drug or placebo) via injection of 50 μl to each of the two margins of the 1 cm wound. All wounds were all harvested at day 70 post-wounding.
The wounds were photographed after wounding, prior to re-injection on day 1 and on day of harvest. The scars were assessed using a visual analogue scale (VAS) consisting of a 0-10 cm line representing a scale, from left to right, of 0 (corresponding to normal skin) to 10 (indicative of a bad scar).

[2] = tested on: scarring resulting from full thickness cutaneous incisional wounds; experiment: Rat incisional wound scarring model, microscopic assessment of scars (Masson's trichrome); assay type: in vivo, male Sprague Dawley rats; conditions: day 70 post-wounding
Method: as §1, §2, §3, §4, §5
For microscopic assessment the scars were excised from the experimental rats (incorporating a small amount of surrounding normal tissue) and fixed in 10% (v/v) buffered formal saline. The fixed tissue was then processed for wax histology, stained using Masson's trichrome, and scarring in the regenerated dermis was assessed.

[3] = biological target: GABAA receptors containing α4β3δ subunits (Homo sapiens, UniProt P28472+P48169); conditions: Brown et al. 2002, cited from earlier work
Chain of GABAA receptors containing α4β3δ subunits (P48169 36-554): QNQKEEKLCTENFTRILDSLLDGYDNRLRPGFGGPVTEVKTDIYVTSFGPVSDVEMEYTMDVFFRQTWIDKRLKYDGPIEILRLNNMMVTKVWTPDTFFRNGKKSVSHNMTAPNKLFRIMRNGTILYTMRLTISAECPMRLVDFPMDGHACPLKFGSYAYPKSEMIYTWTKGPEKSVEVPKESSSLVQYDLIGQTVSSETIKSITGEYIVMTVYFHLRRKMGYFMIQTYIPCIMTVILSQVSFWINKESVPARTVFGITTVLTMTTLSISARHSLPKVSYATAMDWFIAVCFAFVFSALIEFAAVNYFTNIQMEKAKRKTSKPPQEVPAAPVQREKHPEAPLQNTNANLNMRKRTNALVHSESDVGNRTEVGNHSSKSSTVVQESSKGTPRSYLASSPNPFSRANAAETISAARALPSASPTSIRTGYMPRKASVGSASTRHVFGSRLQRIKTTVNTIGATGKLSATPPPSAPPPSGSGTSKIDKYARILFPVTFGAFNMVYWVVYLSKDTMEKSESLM
Chain of GABAA receptors containing α4β3δ subunits (P28472 26-473): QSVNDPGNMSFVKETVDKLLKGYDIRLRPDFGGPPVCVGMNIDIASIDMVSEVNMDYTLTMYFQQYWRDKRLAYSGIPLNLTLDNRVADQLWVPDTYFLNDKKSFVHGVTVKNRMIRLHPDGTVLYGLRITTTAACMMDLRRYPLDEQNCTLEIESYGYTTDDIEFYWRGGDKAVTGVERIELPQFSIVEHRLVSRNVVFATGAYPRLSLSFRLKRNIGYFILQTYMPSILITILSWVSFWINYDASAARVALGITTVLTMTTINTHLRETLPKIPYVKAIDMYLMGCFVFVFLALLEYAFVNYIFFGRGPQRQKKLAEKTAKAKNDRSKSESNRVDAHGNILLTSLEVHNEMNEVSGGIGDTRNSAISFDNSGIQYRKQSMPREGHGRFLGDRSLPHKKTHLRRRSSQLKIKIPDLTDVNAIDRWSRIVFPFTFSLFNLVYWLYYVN
Chain of GABAA receptors containing α4β3δ subunits (O14764 25-452 partner): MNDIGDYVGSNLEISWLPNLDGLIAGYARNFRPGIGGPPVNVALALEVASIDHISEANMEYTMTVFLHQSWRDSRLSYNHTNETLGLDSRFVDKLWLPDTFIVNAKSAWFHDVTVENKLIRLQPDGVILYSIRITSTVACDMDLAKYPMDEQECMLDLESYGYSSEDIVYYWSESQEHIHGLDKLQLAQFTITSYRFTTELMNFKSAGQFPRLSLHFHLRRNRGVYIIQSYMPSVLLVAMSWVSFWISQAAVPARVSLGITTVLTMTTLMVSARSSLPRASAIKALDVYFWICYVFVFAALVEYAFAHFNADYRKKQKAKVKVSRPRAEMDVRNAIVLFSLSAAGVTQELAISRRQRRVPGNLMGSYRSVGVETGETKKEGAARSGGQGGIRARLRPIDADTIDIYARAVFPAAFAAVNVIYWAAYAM

GABAA receptor = conditions: relative to GABA; cited from earlier work

In the case of `Oc1noc2c1CCNC2` [Gaboxadol hydrochloride], the “macroscopic appearance of scars (VAS) versus diluent control” value ([1]; 0.1 μM solution in PBS, two intradermal injections of 100 μl (1.76 ng per centimetre each)) is reported as “improved the macroscopic appearance of scars; also recorded: statistically significant inhibition of scarring”, the “macroscopic appearance of scars (VAS) versus diluent control” value ([1]; 100 μM solution in PBS, two intradermal injections of 100 μl (1.76 μg per centimetre each)) is reported as “improved the macroscopic appearance of scars; also recorded: trend towards scar reduction” and the “macroscopic appearance of scars (VAS) versus diluent control” value ([1]; 500 μM solution in PBS, two intradermal injections of 100 μl (8.83 μg per centimetre each)) is reported as “improved the macroscopic appearance of scars”. The scarring assessed microscopically ([2]; 0.1 μM solution in PBS) was “reduction of scarring”, the scarring assessed microscopically ([2]; 100 μM solution in PBS) was “reduction of scarring” and the scarring assessed microscopically ([2]; 500 μM solution in PBS) was “reduction of scarring”.
For `Oc1noc2c1CCNC2` [Gaboxadol, 4,5,6,7-tetrahydroisoxazolo[5,4-c]pyridine-3-ol], the EC50 [3] is given as 6 µM, the “maximum response (% of that of GABA)” value ([3]; relative to GABA) is given as 163% and the “affinity for GABAA receptors compared with GABA (in words)” value (GABAA receptor) is given as “affinity higher than that of GABA itself”.
In the case of `NCc1cc(=O)[nH]o1` [Muscimol, muscimol], the “affinity at the GABAA receptor, greater than GABA” value (GABAA receptor) is listed as 10 fold.
